In patent US20180280385A1, “NINTEDANIB FOR USE IN METHODS FOR THE TREATMENT OF MUSCULAR DYSTROPHY” (Boehringer Ingelheim International GmbH, priority 2017, published 2018):

How the values were obtained:
[1] = system: animal model of DMD; conditions: literature (Bizario 2009; Huang 2009; Ito 2013); cited from earlier work
[2] = system: mdx mice; experiment: Histological analysis of muscular fibrosis incl. immunofluorescent staining for collagen VI in mdx mice, 1st study; format: in vivo, mouse
Experimental: The treatment of the mdx mice with nintedanib started at an age of 10 months in the 1st study and at 6 weeks in a 2nd study. Treatment duration was 4 weeks in the 1st study and 7 weeks in the 2nd study. Nintedanib was used at a dose of 60 mg/kg once daily administered intragastrically via gavage in both studies.
(§1) In the 1st study, 7 mdx mice were treated with nintedanib, 5 mdx mice with the vehicle as placebo and 5 C57Bl6/mice (=wild type=WT) were used as unaffected, untreated control animals. At the end of the 1st study, electrophysiological examinations using electroneurography and electromyography and a histological analysis were performed. In addition, the level of collagen I expression was investigated using western blot in 4 mice of each test group.
At the end of the 1st study, the diaphragm from non-treated mdx mice had increased fibrotic tissue areas, compared to WT mice, and inflammatory infiltrates.
The fibrotic area of the muscles was assessed using immunofluorescent staining for collagen VI (Col VI). 8 photographs from different muscle sections of the quadriceps, tibialis anterior and diaphragm were randomly taken. […] The reduction of 7% by nintedanib treatment was statistically significant (p<0.001) (FIG. 3A).

[3] = system: mdx mice; experiment: Collagen I expression by western blotting in muscle tissue of mdx mice, 1st study; format: in vivo, mouse; conditions: western blot, normalized to alpha-tubulin; versus mdx mice; 60 mg/kg once daily, 4 weeks
Experimental: as §1, with “The treatment of the mdx mice with nintedanib started at an age of 10 months in the 1st study and at 6 weeks in a 2nd study. Treatment duration was 4 weeks in the 1st study and 7 weeks in the 2nd study. Nintedanib was used at a dose of 60 mg/kg once daily administered intragastrically via gavage in both studies. In the” for “In the”

[4] = system: mdx mice; experiment: Electroneurography (amplitude of motor evoked potentials / CMAP) in mdx mice, 1st study; format: in vivo, mouse; conditions: mdx mice aged 10 months, 60 mg/kg once daily intragastrically, 4 weeks; versus non-treated mdx mice; statistically significant in tibialis anterior
From the text: The mdx mouse is a well characterized and widely used animal model for drug tests for DMD (Bulfield et al., Proc Natl Acad Sci USA 1984, 81, 1189-92). Mdx mice spontaneously develop a pathology resembling aspects of the human disease. They present cycles of degeneration and regeneration in the limb muscles and a progressive degeneration and fibrosis in the diaphragm (Coirault et al., J Appl Physiol 2003, 94, 1744-50). The first wave of degeneration peaks in the fourth week of life. At day 21, muscular lesions can be observed, including myofiber necrosis, leaking myofibers as a consequence of injuries to the sarcolemma, high levels of serum creatine kinase, and the presence of large areas of inflammation, connective tissue, and fat (Collins and Morgan, Int J Exp Pathol 2003, 84, 165-72; Grounds et al., Neurobiol Dis 2008, 31, 1-19). Compulsory physical activity can be applied to exacerbate the muscular degeneration during this phase (De Luca et al., Am J Pathol 2005, 166, 477-89; Grounds et al., Neurobiol Dis 2008, 31, 1-19). The treatment of the mdx mice with nintedanib started at an age of 10 months in the 1st study and at 6 weeks in a 2nd study. […] In the group of the nintedanib-treated mdx mice, an increase in the amplitude of the motor evoked potentials in all nerves studied was detected in comparison to non-treated mdx mice (FIG. 1A-C). […]

[5] = system: mdx mice; experiment: Electromyography (percentage of small, medium and large MUAPs) in mdx mice, 1st study; format: in vivo, mouse; conditions: mdx mice aged 10 months, 60 mg/kg once daily intragastrically, 4 weeks
From the text: The mdx mouse is a well characterized and widely used animal model for drug tests for DMD (Bulfield et al., Proc Natl Acad Sci USA 1984, 81, 1189-92). Mdx mice spontaneously develop a pathology resembling aspects of the human disease. They present cycles of degeneration and regeneration in the limb muscles and a progressive degeneration and fibrosis in the diaphragm (Coirault et al., J Appl Physiol 2003, 94, 1744-50). The first wave of degeneration peaks in the fourth week of life. At day 21, muscular lesions can be observed, including myofiber necrosis, leaking myofibers as a consequence of injuries to the sarcolemma, high levels of serum creatine kinase, and the presence of large areas of inflammation, connective tissue, and fat (Collins and Morgan, Int J Exp Pathol 2003, 84, 165-72; Grounds et al., Neurobiol Dis 2008, 31, 1-19). Compulsory physical activity can be applied to exacerbate the muscular degeneration during this phase (De Luca et al., Am J Pathol 2005, 166, 477-89; Grounds et al., Neurobiol Dis 2008, 31, 1-19). The treatment of the mdx mice with nintedanib started at an age of 10 months in the 1st study and at 6 weeks in a 2nd study. […] In the electromyography the percentage of small, medium and large motor unit action potentials (MUAPs) were recorded (Gordon et al., Can J Physiol Pharmacol 2004, 82, 645-661).

[6] = system: mdx mice; experiment: Hanging wire test in mdx mice, 2nd study; format: in vivo, mouse; conditions: mdx mice from 6 weeks of age, 60 mg/kg once daily intragastrically
Experimental: The treatment of the mdx mice with nintedanib started at an age of 10 months in the 1st study and at 6 weeks in a 2nd study. Treatment duration was 4 weeks in the 1st study and 7 weeks in the 2nd study. Nintedanib was used at a dose of 60 mg/kg once daily administered intragastrically via gavage in both studies. In the 2nd study, 7 mdx mice were treated with nintedanib, 5 mdx mice with the vehicle as placebo and no WT control was included as unaffected, untreated control animals. At the end of the 2nd study, a hanging wire test was performed. In the 2nd study a so called “hanging wire” test was performed (see section Examples and Experimental Data; Rabl et al., BMC Neurosci 2017, 18, 22). This test can be used to assess global “subacute” muscle function and coordination over time in young and old mdx mice. The longest suspension time (LST) and the “fall and reaches” score (FRS) were recorded before the start of the treatment period and after 7 weeks of treatment with nintedanib. […]

In the case of `Cc1ccc(NC(=O)c2ccc(CN3CCN(C)CC3)cc2)cc1Nc1nccc(-c2cccnc2)n1` [imatinib], the “efficacy in an animal model of DMD” value [1] is given as “had shown efficacy”.

In the case of `COC(=O)c1ccc2c(c1)NC(=O)/C2=C(\Nc1ccc(N(C)C(=O)CN2CCN(C)CC2)cc1)c1ccccc1` [nintedanib, Nintedanib], the “reduction of mean Col VI-stained fibrotic area of the diaphragma by treatment” value ([2]; difference to non-treated mdx mice, p<0.001) was 7%, the “inflammatory infiltrates in the diaphragm (histology)” value ([2]; mdx mice aged 10 months, 60 mg/kg once daily intragastrically, 4 weeks) was “not observed” and the “fibrotic area of the diaphragm (histology)” value ([2]; mdx mice aged 10 months, 60 mg/kg once daily intragastrically, 4 weeks, versus non-treated mdx mice) was “clearly reduced”. The “Col VI staining in tibialis anterior sections” value ([2]; mdx mice aged 10 months, 60 mg/kg once daily, 4 weeks, non-treated mdx 21.4%, p=0.06, not statistically significant) was 18.9%, the “Col VI staining in quadriceps sections” value ([2]; mdx mice aged 10 months, 60 mg/kg once daily, 4 weeks, non-treated mdx 25.4%, p=0.03) was 23.1% and the “mean fibrotic area stained for Col VI on the diaphragma” value ([2]; mdx mice aged 10 months, 60 mg/kg once daily, 4 weeks, non-treated mdx 57.8%, p<0.001) was 50.8%. For the same molecule, the “collagen I (Col I) expression in the diaphragm” value [3] was “statistically significant decrease”, the “collagen I (Col I) expression in the tibialis anterior” value [3] was “statistically significant decrease” and the “amplitude of the motor evoked potentials (CMAP) in all nerves studied (tibialis anterior, Gastrocnemius, Plantar muscle)” value [4] was “increase”. The “large MUAPs” value [5] was “increase”, the “percentage of small MUAPs” value [5] was “normalized” and the “"fall and reaches" score (FRS)” value ([6]; 7 week observation period, decreased in vehicle-treated mice) was “remained nearly constant”. The “longest suspension time (LST)” value ([6]; after 7 weeks of treatment versus before start) was “increased”.
